Source: patent US20250186405A1, “Compound For Use In Treating Narcolepsy” (Alkermes, Inc., priority 2023, published 2025)

Columns and labels:
[1] = Part 1 SAD: plasma pharmacokinetics after single oral dose; type: in vivo, human; conditions: for CL/F / AUC(0-t) / Cmax / AUC(0-inf) / half-life / Vd/F / concentration at 8 h: geometric mean; for AUC(0-t) / Cmax / AUC(0-inf) / half-life / Vd/F / concentration at 8 h / Tmax: human, plasma; for Vd/F: read-out: Vz/F; for concentration at 8 h: read-out: C8 (concentration at 8-hour post dose)
Protocol: There were approximately 8 subjects per cohort. Dose levels were as follows:
(§1) Blood samples (up to 5 mL per sample) were collected for PK analysis of Compound A and its metabolite(s). The actual time of sample collection was recorded. The PK samples of the subjects randomized to placebo treatment were not analyzed. Any remaining plasma PK samples were used to explore the presence of any additional metabolites and/or biomarkers.
(§2) Plasma and urine concentrations of Compound A and its metabolite(s) were measured using a validated high-performance liquid chromatography with tandem mass spectrometry.
(§3) The plasma PK parameters of Compound A and its metabolite(s) were determined from the plasma concentration-time profiles for all evaluable subjects. Actual sampling times, rather than scheduled sampling times, were used in all computations involving sampling times. The below lower limit of quantitation concentrations were set to zero prior to PK parameter estimation.
The PK population was used for summaries of plasma Compound A and its metabolite(s) concentrations and for analyses, summaries, and listing of PK parameters. Dose proportionality for Cmax, AUC0-t, and AUC0-∞ was evaluated using a linear model of logarithmically transformed values to assess the slope parameter, and the 95% CI for the slope was estimated. Where the 95% CI of the slope includes 1, it was considered as evidence of dose proportionality for that PK parameter.

[2] = Part 2 MAD: plasma pharmacokinetics, once daily for 10 days; type: in vivo, human; conditions: for Cmax / AUC(0-t) / concentration at 8 h / Tmax / half-life / Vd/F: oral; for AUC(0-t): read-out: AUC0-24, ss; for concentration at 8 h: read-out: C8 (concentration at 8-hour postdose); for Vd/F: read-out: Vz/F
Protocol: Part 2 of the study is a MAD evaluation in healthy subjects consisting of 4 cohorts: Cohorts 1-4 received powder-in-capsule or matching placebo. Dose levels were as follows:
as §1, §2, §3
The PK population was used for summaries of plasma and urine Compound A and its metabolite(s) concentrations and for analyses, summaries, and listing of PK parameters. Accumulation ratio (Day 10/Day 1) for Cmax and AUC0-24 was estimated with 90% CIs using a linear fixed effects model on log-transformed parameters. Dose effect was assessed using a linear fixed effects model on log-transformed t1/2. Dose proportionality was assessed using a power model on Cmax and AUC0-24 on Day 1 and Day 10 separately. Within-subject and total standard deviations for log-transformed Cmax and AUC0-24 were estimated within a linear mixed effects framework.

[3] = 1 mg single dose (low end of 1 to 50 mg)
[4] = 50 mg single dose (high end of 1 to 50 mg)
[5] = human, plasma, 3 mg, Day 1, geometric mean
[6] = human, plasma, 3 mg, Day 10, geometric mean
[7] = human, plasma, 8 mg, Day 1, geometric mean
[8] = human, plasma, 8 mg, Day 10, geometric mean
[9] = human, plasma, 15 mg, Day 1, geometric mean
[10] = human, plasma, 15 mg, Day 10, geometric mean
[11] = human, plasma, 25 mg, Day 1, geometric mean
[12] = human, plasma, 25 mg, Day 10, geometric mean

In the case of `CS(=O)(=O)N[C@H]1CCCN2C(=O)COc3ccccc3C3CCC(CC3)OCC12` (stereo partly drawn) [Compound A, N-[(4S,4aR,7α,10α)-1,2,3,4,4a,5,7,8,9,10,16,17-dodecahydro-17-oxo-7,10-ethanopyrido[1,2-d][1,7,4]benzodioxaazacyclotridecin-4-yl]methanesulfonamide], the “geometric mean AUC0-inf/D” value [1, 3] is reported as 11.6, the “geometric mean Cmax/D” value [1, 3] is reported as 3.2 and the CL/F ([1]; 1 mg single dose, N = 5) is reported as 86.0 L/h. For the same compound, the CL/F ([1]; 3 mg single dose, N = 3) was 95.6 L/h, the CL/F ([1]; 8 mg single dose, N = 4) was 96.4 L/h and the CL/F ([1]; 15 mg single dose, N = 5) was 89.8 L/h. The CL/F ([1]; 25 mg single dose) was 91.1 L/h, the “geometric mean AUC0-inf/D” value [1, 4] was 10.1 and the “geometric mean Cmax/D” value [1, 4] was 0.59. For the same compound, the CL/F ([1]; 50 mg single dose, N = 2) was 99.3 L/h, the AUC(0-t) ([1]; oral, 1 mg single dose) was 12.3 ng·h/mL and the Cmax ([1]; oral, 1 mg single dose) was 3.23 ng/mL. The AUC(0-inf) ([1]; oral, 1 mg single dose, N = 5) was 11.6 ng·h/mL, the half-life ([1]; oral, 1 mg single dose, N = 5) was 2.79 h and the Vd/F ([1]; oral, 1 mg single dose, N = 5) was 346 L. It also gave a concentration at 8 h ([1]; oral, 1 mg single dose) of 0.337 ng/mL, a Tmax ([1]; oral, 1 mg single dose, median, read-out: Tmax) of 1.5 h and an AUC(0-t) ([1]; oral, 3 mg single dose) of 36.6 ng·h/mL. It also gave a Cmax ([1]; oral, 3 mg single dose) of 6.15 ng/mL, an AUC(0-inf) ([1]; oral, 3 mg single dose, N = 3) of 31.4 ng·h/mL and a half-life ([1]; oral, 3 mg single dose, N = 3) of 2.31 h. It also gave a Vd/F ([1]; oral, 3 mg single dose, N = 3) of 318 L, a concentration at 8 h ([1]; oral, 3 mg single dose) of 1.24 ng/mL and a Tmax ([1]; oral, 3 mg single dose, median, read-out: Tmax) of 1.5 h. For the same compound, the AUC(0-t) ([1]; oral, 8 mg single dose) was 81.3 ng·h/mL, the Cmax ([1]; oral, 8 mg single dose) was 11.5 ng/mL and the AUC(0-inf) ([1]; oral, 8 mg single dose, N = 4) was 83 ng·h/mL. It also gave a half-life ([1]; oral, 8 mg single dose, N = 4) of 16 h, a Vd/F ([1]; oral, 8 mg single dose, N = 4) of 2220 L and a concentration at 8 h ([1]; oral, 8 mg single dose) of 2.47 ng/mL. The Tmax ([1]; oral, 8 mg single dose, median, read-out: Tmax) was 2 h, the AUC(0-t) ([1]; oral, 15 mg single dose) was 165 ng·h/mL and the Cmax ([1]; oral, 15 mg single dose) was 22.1 ng/mL. The AUC(0-inf) ([1]; oral, 15 mg single dose, N = 5) was 167 ng·h/mL, the half-life ([1]; oral, 15 mg single dose, N = 5) was 10.1 h and the Vd/F ([1]; oral, 15 mg single dose, N = 5) was 1300 L. The concentration at 8 h ([1]; oral, 15 mg single dose) was 4.07 ng/mL, the Tmax ([1]; oral, 15 mg single dose, median, read-out: Tmax) was 2.5 h and the AUC(0-inf) ([1]; oral, 25 mg single dose) was 274 ng·h/mL. For the same compound, the AUC(0-t) ([1]; oral, 25 mg single dose) was 241 ng·h/mL, the Cmax ([1]; oral, 25 mg single dose) was 23.1 ng/mL and the half-life ([1]; oral, 25 mg single dose) was 12.5 h. The concentration at 8 h ([1]; oral, 25 mg single dose) was 5.7 ng/mL, the Vd/F ([1]; oral, 25 mg single dose) was 1650 L and the Tmax ([1]; oral, 25 mg single dose, median, read-out: Tmax) was 1 h. For the same compound, the AUC(0-t) ([1]; oral, 50 mg single dose) was 357 ng·h/mL, the Cmax ([1]; oral, 50 mg single dose) was 29.3 ng/mL and the AUC(0-inf) ([1]; oral, 50 mg single dose, N = 2) was 503 ng·h/mL. It also gave a half-life ([1]; oral, 50 mg single dose, N = 2) of 7.34 h, a Vd/F ([1]; oral, 50 mg single dose, N = 2) of 1050 L and a concentration at 8 h ([1]; oral, 50 mg single dose) of 7.83 ng/mL. For the same compound, the Tmax ([1]; oral, 50 mg single dose, median, read-out: Tmax) was 2 h, the Tmax ([1]; single oral doses 1 to 50 mg, fasted subjects, read-out: median Tmax, range across doses) was 1 to 2.5 h and the “fold change in geometric mean AUC (AUClast) for 50-fold change in dose” value ([1]; single doses 1 to 50 mg) was 29 fold. For the same compound, the “fold change in geometric mean Cmax for 50-fold change in dose” value ([1]; single doses 1 to 50 mg) was 9 fold, the Accumulation ratio (Day 10/Day 1) AUC0-24 ([2]; 3 mg) was 1.36 and the Accumulation ratio (Day 10/Day 1) Cmax ([2]; 3 mg) was 1.68. The CL/F ([2]; 3 mg, Day 10, geometric mean) was 62.0 L/h, the Ctrough ([2]; 3 mg, Day 10, geometric mean) was 0.495 ng/mL and the Accumulation ratio (Day 10/Day 1) AUC0-24 ([2]; 8 mg) was 1.36. It also gave an Accumulation ratio (Day 10/Day 1) Cmax ([2]; 8 mg) of 1.38, a CL/F ([2]; 8 mg, Day 10, geometric mean) of 55.7 L/h and a Ctrough ([2]; 8 mg, Day 10, geometric mean) of 2.07 ng/mL. For the same compound, the Accumulation ratio (Day 10/Day 1) AUC0-24 ([2]; 15 mg) was 1.23, the Accumulation ratio (Day 10/Day 1) Cmax ([2]; 15 mg) was 1.15 and the CL/F ([2]; 15 mg, Day 10, geometric mean) was 84.4 L/h. For the same compound, the Ctrough ([2]; 15 mg, Day 10, geometric mean) was 2.06 ng/mL, the Accumulation ratio (Day 10/Day 1) AUC0-24 ([2]; 25 mg) was 1.02 and the Accumulation ratio (Day 10/Day 1) Cmax ([2]; 25 mg) was 1.32. For the same compound, the CL/F ([2]; 25 mg, Day 10, geometric mean) was 108 L/h, the Ctrough ([2]; 25 mg, Day 10, geometric mean) was 4.51 ng/mL and the Cmax [2, 5] was 5.6 ng/mL. It also gave an AUC(0-t) [2, 5] of 35.5 ng·h/mL, a concentration at 8 h [2, 5] of 1.21 ng/mL and a Tmax ([2]; human, plasma, 3 mg, Day 1, median, read-out: Tmax) of 1.75 h. For the same compound, the Cmax [2, 6] was 9.38 ng/mL, the half-life [2, 6] was 9.63 h and the AUC(0-t) [2, 6] was 48.4 ng·h/mL. For the same compound, the concentration at 8 h [2, 6] was 1.39 ng/mL, the Tmax ([2]; human, plasma, 3 mg, Day 10, median, read-out: Tmax) was 1.5 h and the Cmax [2, 7] was 16 ng/mL. The AUC(0-t) [2, 7] was 104 ng·h/mL, the concentration at 8 h [2, 7] was 3.89 ng/mL and the Tmax ([2]; human, plasma, 8 mg, Day 1, median, read-out: Tmax) was 1.75 h. It also gave a Cmax [2, 8] of 22.1 ng/mL, a half-life [2, 8] of 7.66 h and an AUC(0-t) [2, 8] of 141 ng·h/mL. It also gave a concentration at 8 h [2, 8] of 4.6 ng/mL, a Tmax ([2]; human, plasma, 8 mg, Day 10, median, read-out: Tmax) of 1.75 h and a Cmax [2, 9] of 25.2 ng/mL. For the same compound, the concentration at 8 h [2, 9] was 3.41 ng/mL, the Tmax ([2]; human, plasma, 15 mg, Day 1, median, read-out: Tmax) was 1.5 h and the Cmax [2, 10] was 28.9 ng/mL. For the same compound, the half-life [2, 10] was 14 h, the concentration at 8 h [2, 10] was 4.62 ng/mL and the Tmax ([2]; human, plasma, 15 mg, Day 10, median, read-out: Tmax) was 1.75 h. The Tmax ([2]; human, plasma, 25 mg, 3, 8, 15 and 25 mg, both Day 1 and Day 10 (range 1.0 to 6.0), read-out: median Tmax) was 1.75 h, the Cmax [2, 11] was 28 ng/mL and the concentration at 8 h [2, 11] was 7.35 ng/mL. The Tmax ([2]; human, plasma, 25 mg, Day 1, median, read-out: Tmax) was 1.25 h, the Cmax [2, 12] was 36.9 ng/mL and the half-life [2, 12] was 15.9 h. For the same compound, the concentration at 8 h [2, 12] was 7.39 ng/mL, the Tmax ([2]; human, plasma, 25 mg, Day 10, median, read-out: Tmax) was 1.5 h and the Vd/F [2, 6] was 862 L. The Vd/F [2, 8] was 616 L, the Vd/F [2, 10] was 1700 L and the Vd/F [2, 12] was 2480 L. For the same compound, the half-life at 10 days ([2]; human, plasma, po, Day 10, 3 to 25 mg, read-out: terminal half-life following multiple oral dosing, range) was 8 to 16 h and the “steady state expected to be achieved by” value ([2]; once daily dosing, from half-life) was no more than 4 days.
